Results as given in patent publication EP0029082B1, “1-Benzylated ergometrine derivatives, process for their preparation and pharmaceutical compositions containing them” (VEB Arzneimittelwerk Dresden, priority 1979, dated 1981).

Test system: Serotoninödem an der Ratte
Assay: Antiserotonin effect on serotonin-induced oedema in the rat (set-up according to Winter, Risley and Nuss)
Format: in vivo
Settings: dose 0,005 mg/kg i. p., mean inhibition versus control group, values statistically significant for A and B; for prozentuale Hemmung nach Serotoningabe (%) nach 30 min: 30 min after serotonin; for prozentuale Hemmung nach Serotoningabe (%) nach 90 min: 90 min after serotonin; for prozentuale Hemmung nach Serotoningabe (%) nach 150 min: 150 min after serotonin; for prozentuale Hemmung nach Serotoningabe (%) nach 210 min: 210 min after serotonin; for prozentuale Hemmung nach Serotoningabe (%) nach 270 min: 270 min after serotonin

Row | Compound | prozentuale Hemmung nach Serotoningabe (%) nach 30 min | prozentuale Hemmung nach Serotoningabe (%) nach 90 min | prozentuale Hemmung nach Serotoningabe (%) nach 150 min | prozentuale Hemmung nach Serotoningabe (%) nach 210 min | prozentuale Hemmung nach Serotoningabe (%) nach 270 min
1 | CC[C@@H](CO)NC(=O)[C@@H]1C=C2c3cccc4c3c(cn4C)C[C@H]2N(C)C1 [Methysergid, reference compound] | 68% | 60% | 36% | 34% | 46%
2 | C[C@@H](CO)NC(=O)[C@@H]1C=C2c3cccc4c3c(cn4Cc3cccc(F)c3)C[C@H]2N(C)C1 [Verb. A, 1-(3'-Fluorbenzyl)-ergometrindimaleinat] | 44% | 50% | 36% | 55% | 56%
3 | C[C@@H](CO)NC(=O)[C@@H]1C=C2c3cccc4c3c(cn4Cc3ccc(Cl)cc3)C[C@H]2N(C)C1 [Verb. B, 1-(4'-Chlorbenzyl)-ergometrindimaleinat] | 44% | 45% | 46% | 61% | 58%
